Values of other authors, collected in patent US10376470B2, “Oral tablet formulation consisting of fixed combination of rosuvastatin and ezetimibe for treatment of hyperlipidemia and cardiovascular diseases” (Althera Life Sciences, LLC, priority 2012, dated 2019).

In the case of O=C1[C@H](CC[C@H](O)c2ccc(F)cc2)[C@@H](c2ccc(O)cc2)N1c1ccc(F)cc1 [Ezetimibe, ezetimibe], the Solubility in water is given as “practically insoluble”.
